Test results from EP1903028A1, “Conjugates of glutamate and NMDA receptor channel blockers without excito-toxic effects” (Tschollar,, Werner, priority 2006, dated 2008).
Where two headings read alike, the source gives them in different places.

Experiments:
[1] = target: T1, aminopeptidase A (Rattus norvegicus, UniProt P50123); assay type: in vitro ADME
T1 construct: Hippocampi were removed on ice and coronal slices chopped (0.40 mm thick); from tissue; host or cells: rat hippocampal slices
Procedure: Animals were housed in plastic cages, with free access to standard laboratory food and water, under controlled conditions of lighting, humidity and temperature. Rats were killed by decapitation and brains were quickly removed and immediately transferred in ice-cold artificial cerebrospinal fluid (aCSF) having the following composition (mM):125 NaCl, 3 KCl, 1.2 CaCl2, 1.2 MgSO4, 1 NaH2PO4, 22 NaHCO3 and 10 glucose (aerated with 95% O2 and 5% CO2 at 37°C), pH 7.2-7.4. Hippocampi were removed on ice and coronal slices chopped (0.40 mm thick). Slices were then incubated for 1 h in the presence of a 95% O2and 5% CO2 current (37°C). After washing with fresh aCSF (37°C), slices were transferred to a modified 24 chamber's cell culture well (2 slices per chamber) adapted to accept a constant current of 95% O2 and 5% CO2 all experiment time long. 2 ml aCSF was present in each chamber. Some experiments were performed in a modified aCSF containing 1mM EGTA in the absence of Ca^2+ ions. Drugs were added immediately before slices. After 1h incubation at 37°C, 80 µl aCSF per chamber was drawn in order to evaluate the metabolization time-course. After 3h incubation the experiment ended with a new 80 µl drawing.
Rat hippocampal slices, incubated in physiological conditions (95% 02; 5% CO2 at 37°C, pH 7.2-7.4), metabolized Compound 1 ((S)-4-amino-5-[(4,4-dimethylcyclohexyl)-amino]-5-oxo-pentanoic acid) into Compound 2 (4,4-dimethyl-cyclohexamine) + glutamic acid. After 1h incubation 2,5% ± 0,3% (n=2) Compound 1 was cleaved to yield Compound 2. After 3h incubation 9,0% ± 0,0% (n=2) Compound 1 was cleaved to Compound 2. In the presence of 3 µM amastatin, a selective inhibitor of aminopeptidase A, the cleavage of Compound 1 at 1h and 3h was reduced to 0,5% and 2,0%, respectively (see Figure 2). […] Since aminopeptidase A is a Ca++-dependent enzyme, the cleavage of Compound 1 was then examined under Ca++ -free conditions. In the absence of Ca++ ions, Compound 1 cleavage was inhibited by 76% at 1h and 3h. Aminopeptidase A therefore appears to be the principal enzyme responsible for the cleavage of Compound 1 into Compound 2 plus glutamate.

[2] = in vivo; conditions: rat, 30 mg/kg
Procedure: The average (± s.e.m.) plasma and cerebrospinal fluid levels of Compound 1, after a single i.p. or oral administration of 30 mg/kg plotted against time (h), are given in Figure 1. Compound 1 appeared in plasma shortly after both oral and i.p. administration, with a lag-time of 0.12 h. […] Compound 1 crossed the blood-CSF barrier very rapidly, showing lag times of 0.1-0.23 h after oral and i.p. administration, respectively. The maximum concentration of Compound 1 in the CSF was reached 45-60 min after oral and i.p. administration. […] Compound 1 therefore efficiently crosses into the CSF in rats.

[3] = test system: CA1 pyramidal neurons; test: NMDA excito-toxicity in hippocampal slices in vitro (area of CA1 pyramidal neurons); assay type: cell-based, rat; conditions: 100 µM NMDA, compound added 15 min prior, 45 min incubation
Procedure: In this experiment, slices were obtained from hippocampi of young (8 day old) rats. After one hour of pre-incubation, NMDA was added to give a final concentration of 100 µM. Either Compound 1 or Compound 2 was added 15 min prior to NMDA and the incubation was carried out for 45 min. Three slices of each sample were collected and fixed with glutaraldehyde (5%). After embedding and freezing, sections (4 µm) were stained with Cresyl violet. Neuronal injury was studied with light microscopy using an imaging analyser (Kontron, KS300). The area occupied by CA1 pyramidal neurons was measured in an analyser-defined field. The pattern of hippocampal neuro-degeneration following NMDA-stimulation consisted of a significant decrease in neuronal nuclei area. […] In contrast, Compound 1 had no effect on NMDA-induced neuronal damage (results not shown).

[4] = test system: gerbils subjected to bilateral occlusion of the carotid arteries; test: Neuro-protection after bilateral occlusion of the carotid arteries in vivo; set-up: species or system Mongolian gerbils
Procedure: This experiment investigated the neuro-protective effects of Compound 2 in gerbils subjected to bilateral occlusion of the carotid arteries. Mongolian gerbils were anaesthetised with halothane and the right and left common carotid arteries were occluded for a period of 5 min. […] The brains were cut into 10 µm-thick sections in the area of the hippocampus and sections were stained with cresyl violet. Quantitative assessment of area occupied by CA pyramidal neurons was performed using an image analyser (Kontron, KS300). For each animal, measurements were made in a defined field from both hippocampi in 4 coronal sections. The raw data were represented by the mean of 8 measures. The pattern of hippocampal neuro-degeneration following ischemia consisted of a significant decrease of neuronal nuclei area.
Compound 2 at a dose of 16 mg/kg, was 100% protective (see Figure 5).

[5] = test system: rats; test: Step-through active avoidance test (acquisition of active avoidance behaviour); assay type: in vivo; conditions: for percent of conditioned avoidance: Compound 1: 3 and 10 mg/kg i.p. twice a day, 5 days, p<0.001
Procedure: (§1) The cleavage is inhibited by the specific aminopeptidase A inhibitor amastatin. The amount of Compound 2 produced by cleavage of Compound 1 after 3 hours incubation with hippocampal slices is shown. AMA=Amastatin. • FIGS. 3A,B show inhibition of NMDA function by Compound 2. […] Effects of Compound 2 on [^3H]MK-801 binding enhanced by glycine (panel A), glutamate (panel B) and spermine (panel C). […] The 3H-MK-801 concentration was approx. 3 nM in all the experiments. […] Effect of Compound 1 administered i.p. twice a day (30 min before session and at 5.00 p.m.) for 4 days. […] Data are Mean ± s.e.m. of the efficiency indexes grouped in 2-day intervals. […] Values represent the median latency (sec) to enter the shock compartment and interquartile ranges. †P <0.05 vs. scopolamine + (FS), ‡P < 0.01 vs. saline + (FS) (log rank test). […] Values represent the median latency (s) to enter the shock compartment and interquartile ranges. **P < 0.01 vs. vehicle no ECS, †P< 0.05 and ‡P< 0.01 vs. vehicle + ECS (log rank test).
The acquisition of active avoidance behaviour was evaluated during one 40-trial daily session for 5 consecutive days. Compound 1, when given at doses of 3 and 10 mg/kg, increased the percent of conditioned avoidance (see Figure 6A).

[6] = test system: rats; test: Lever-holding operant behaviour (Skinner Box); assay type: in vivo; conditions: 3-10-30 mg/kg i.p., 14 days, p=0.007 versus control
Procedure: In a further test of learning, lever-holding operant behaviour was tested in a standard rodent operant conditioning chamber (Skinner Box). Rats were trained to press the lever for water reward on a continuous reinforcement schedule, for which each lever pressing was rewarded. Daily sessions lasted 30 min and were performed under a green light. Water was restricted to a 30 min post-session period. After two days of stabilisation, rats were subjected to a visual discrimination schedule, in which a green light signalled the availability of the reinforcement for 60 sec, followed by a 30 sec interval with no reinforcement. Daily sessions lasted 30 min and were repeated for 14 days. Data were expressed as the Efficiency Index, which is a ratio of reinforced (correct responses during a session) to non-reinforced responses.

[7] = test system: rats; test: Radial maze learning test; assay type: in vivo; conditions: for test acquisition in the radial maze: Compound 1: 1-30 mg/kg, versus control animals
Procedure: In another experiment of learning, a radial maze test was used. The radial maze consisted of eight arms radiating from a centre platform. The platform was 40 cm in diameter and the eight arms were 60 cm long, 13 cm wide, with walls 10 cm high. The surface of the maze was elevated 50 cm from the floor. Plastic food cups (4 cm in diameter) were at the end of each arm. One 50 mg micro-pellet was placed in a cup at the beginning of each trial. In the training session, the rat was placed in the centre of the platform facing arm #4 and allowed to freely explore the maze. The animal was left in the maze until it ate all of the 24 pellets placed three per arm.

[8] = test system: rats; test: Scopolamine-induced memory impairment, passive avoidance; assay type: in vivo; conditions: Compound 1: 1 and 10 mg/kg, i.p.; significant (p<0.05) at 10 mg/kg
Procedure: as §1
In this experiment, Compound 1 was tested to determine whether it could reverse scopolamine-induced memory impairment in a passive-avoidance paradigm in rats.

[9] = Electroconvulsive shock-induced memory impairment; assay type: in vivo; conditions: Compound 1: 3, 10 and 30 mg/kg; significant at 10 and 30 mg/kg (P <0.05, P <0.01)
Procedure: as §1
In another model of memory impairment, electroconvulsive shock was employed as a memory de-stabilizer. […] For doses of 10 and 30 mg/kg the effect was statistically significant (P <0.05 and P <0.01, respectively) (see Figure 7B).

[10] = test system: NMDA receptor; test: [3H]MK-801 binding to washed rat cortical membranes enriched for NMDA receptors; conditions: binding enhanced by glycine, glutamate or spermine; 10, 100, 1000 µM Compound 2; approx. 3 nM 3H-MK-801
Procedure: as §1
MK-801 (dizocilpine) is an open-channel ligand of the NMDA Ca channel. Washed rat cortical membranes enriched for NMDA receptors were incubated with increasing concentrations of the co-agonists glycine or glutamate, or the positive modulator spermine, and Compound 2. The binding of ^3H MK801 was then measured. […]

[11] = target: T2, NMDAR (subtype NR1/NR2A) (Homo sapiens, UniProt Q05586+Q12879); test: Glutamate-evoked currents in NMDA receptor-transfected oocytes; assay type: cell-based; conditions: glutamate 10uM, 100uM glycine, read-out: IC50, inhibition of glutamate-stimulated Ca current
T2 construct: expressed in transfected cells
T2 sequence (Q12879 23-1464, other chains not shown): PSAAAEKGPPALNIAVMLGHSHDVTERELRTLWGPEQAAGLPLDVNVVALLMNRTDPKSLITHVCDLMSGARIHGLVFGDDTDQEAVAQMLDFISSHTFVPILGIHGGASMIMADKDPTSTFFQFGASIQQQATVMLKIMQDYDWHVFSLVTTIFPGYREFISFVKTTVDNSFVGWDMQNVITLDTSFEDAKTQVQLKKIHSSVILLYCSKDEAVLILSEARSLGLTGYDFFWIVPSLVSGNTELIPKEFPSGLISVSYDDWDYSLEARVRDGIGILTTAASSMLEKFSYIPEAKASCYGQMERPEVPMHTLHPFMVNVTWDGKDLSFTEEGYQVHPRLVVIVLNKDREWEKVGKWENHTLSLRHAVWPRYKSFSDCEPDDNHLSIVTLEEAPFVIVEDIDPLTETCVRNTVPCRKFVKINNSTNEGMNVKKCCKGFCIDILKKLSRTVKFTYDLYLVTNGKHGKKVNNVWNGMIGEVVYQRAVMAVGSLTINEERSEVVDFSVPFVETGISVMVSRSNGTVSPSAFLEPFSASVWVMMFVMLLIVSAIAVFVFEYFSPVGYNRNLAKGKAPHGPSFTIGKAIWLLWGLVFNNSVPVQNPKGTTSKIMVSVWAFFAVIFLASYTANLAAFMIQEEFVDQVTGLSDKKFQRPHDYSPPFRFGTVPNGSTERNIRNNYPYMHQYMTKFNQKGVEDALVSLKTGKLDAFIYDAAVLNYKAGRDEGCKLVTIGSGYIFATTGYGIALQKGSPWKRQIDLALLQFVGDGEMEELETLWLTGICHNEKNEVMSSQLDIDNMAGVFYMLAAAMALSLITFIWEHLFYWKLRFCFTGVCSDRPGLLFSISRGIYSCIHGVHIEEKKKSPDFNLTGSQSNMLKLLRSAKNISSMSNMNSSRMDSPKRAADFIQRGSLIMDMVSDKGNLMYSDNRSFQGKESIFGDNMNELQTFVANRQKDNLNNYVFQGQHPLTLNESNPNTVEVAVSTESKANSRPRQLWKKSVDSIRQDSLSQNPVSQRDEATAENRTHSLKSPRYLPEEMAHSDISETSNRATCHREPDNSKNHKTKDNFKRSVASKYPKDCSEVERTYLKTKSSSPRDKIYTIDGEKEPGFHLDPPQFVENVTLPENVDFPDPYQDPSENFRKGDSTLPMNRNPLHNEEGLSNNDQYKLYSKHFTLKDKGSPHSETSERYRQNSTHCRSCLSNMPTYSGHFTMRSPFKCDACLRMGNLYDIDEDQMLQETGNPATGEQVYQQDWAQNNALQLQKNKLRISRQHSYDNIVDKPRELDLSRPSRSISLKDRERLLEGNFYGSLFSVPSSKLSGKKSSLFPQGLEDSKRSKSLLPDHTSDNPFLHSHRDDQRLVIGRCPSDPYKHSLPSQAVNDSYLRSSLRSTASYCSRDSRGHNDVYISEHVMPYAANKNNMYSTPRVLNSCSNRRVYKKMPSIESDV
Procedure: Glutamate stimulates an inward Ca current through the NMDA receptor channel by binding to a specific ligand-binding site at the NR1/NR2 subunit interface and opening the ion channel to the influx of calcium. Glutamate (10uM) was added to oocytes transfected with the NMDAR (subtype NR1/NR2A) in the presence of 100uM glycine and increasing amounts of Compound 2.

T1 sequence (P50123 whole entry): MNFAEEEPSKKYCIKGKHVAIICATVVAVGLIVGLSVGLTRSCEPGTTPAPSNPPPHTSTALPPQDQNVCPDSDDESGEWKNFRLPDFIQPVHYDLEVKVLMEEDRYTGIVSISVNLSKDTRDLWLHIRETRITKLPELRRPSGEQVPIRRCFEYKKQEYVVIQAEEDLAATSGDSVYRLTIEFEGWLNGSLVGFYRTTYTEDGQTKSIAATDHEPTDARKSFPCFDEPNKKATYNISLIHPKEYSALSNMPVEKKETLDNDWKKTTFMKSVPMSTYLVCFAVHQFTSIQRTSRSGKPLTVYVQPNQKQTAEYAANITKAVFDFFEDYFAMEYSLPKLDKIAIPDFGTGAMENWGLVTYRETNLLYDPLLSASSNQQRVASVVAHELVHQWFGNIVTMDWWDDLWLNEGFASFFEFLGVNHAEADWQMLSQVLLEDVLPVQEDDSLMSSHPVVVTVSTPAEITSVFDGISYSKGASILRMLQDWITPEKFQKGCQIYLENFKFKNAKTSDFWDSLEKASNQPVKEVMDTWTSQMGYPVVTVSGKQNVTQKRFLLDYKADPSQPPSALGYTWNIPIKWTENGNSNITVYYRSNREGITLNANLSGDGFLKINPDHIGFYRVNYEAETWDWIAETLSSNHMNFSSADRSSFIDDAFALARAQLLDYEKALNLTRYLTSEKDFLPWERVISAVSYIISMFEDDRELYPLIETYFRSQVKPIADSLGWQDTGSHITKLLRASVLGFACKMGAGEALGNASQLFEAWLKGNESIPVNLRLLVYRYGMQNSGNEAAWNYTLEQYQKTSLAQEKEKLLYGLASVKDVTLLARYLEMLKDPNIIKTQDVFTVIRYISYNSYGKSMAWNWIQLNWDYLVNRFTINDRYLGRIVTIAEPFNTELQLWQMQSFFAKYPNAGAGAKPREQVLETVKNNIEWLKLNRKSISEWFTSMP

Structure (SMILES): CC(C)C[C@@H](N)[C@H](O)C(=O)N[C@H](C(=O)N[C@H](C(=O)N[C@@H](CC(=O)O)C(=O)O)C(C)C)C(C)C [Amastatin, reference compound]
- IC50 ([1]; rat hippocampal slices, read-out: IC50, inhibition of cleavage of Compound 1): 0.3 µM

Structure (SMILES): CC1(C)CCC(NC(=O)[C@@H](N)CCC(=O)O)CC1 [Compound 1, (S)-4-amino-5-(4,4-dimethylcyclohexylamino)-5-oxopentanoic acid]
- Tmax [2]: 1 h
- plasma lag-time [2]: 0.12 h
- time to maximum concentration in the CSF [2]: 45 to 60 min
- Kp ([2]; ip): 0.48
- lag time for crossing the blood-CSF barrier ([2]; ip): 0.23 h
- Kp ([2]; po): 0.62
- lag time for crossing the blood-CSF barrier ([2]; po): 0.1 h
- Compound 1 cleavage inhibited ([1]; in the absence of Ca++ ions, at 1h and 3h): 76%
- Compound 1 cleaved to yield Compound 2 ([1]; rat, 1 h, pH 7.2): 2,5% ± 0,3%
- Compound 1 cleaved to Compound 2 ([1]; rat, 3 h, pH 7.2): 9,0% ± 0,0%
- effect on NMDA-induced neuronal damage [3]: no effect
- mortality ([4]; 50mg/kg, ischemia alone 50% 7-day mortality): zero
- percent of conditioned avoidance [5]: increased
- uncoordinated escape responses or spontaneous inter-trial responses ([5]; rat, in vivo): did not affect
- percent of reinforced responses (Efficiency Index) [6]: increased in a dose-dependent manner
- number of sessions to reach acquisition criterion ([7]; 10 and 30 mg/kg (P <0.05, P <0.01, respectively)): decreased
- test acquisition in the radial maze [7]: faster test acquisition
- retention latency, reversal of scopolamine-induced memory impairment [8]: dose-dependently increased latency
- step-down latency after electroconvulsive shock [9]: dose-dependently increased step-down latency

Structure (SMILES): CC1(C)CCC(N)CC1 [Compound 2, 4,4-dimethyl-cyclohexylamine]
- inhibition of MK-801 binding [10]: inhibited MK-801 binding in a dose-dependent fashion
- IC50 ([11]; 100 millivolts): 30 µM
- IC50 ([11]; -60 millivolts): 117 µM
- IC50 ([3]; Rattus norvegicus, Pyramidal neuron, slices of 8 day old rats, read-out: IC50, prevention of NMDA-induced damage): 189 ± 42.4 µM
- protective (7-day mortality) ([4]; 16 mg/kg, 1 hour prior to ischemia, ischemia alone 50% mortality): 100%
- protection from neuronal degeneration and death ([4]; administered 1 hour prior to ischemia): dose-dependently protected
- percent of conditioned avoidance [5]: without activity
- test acquisition in the radial maze [7]: without effect
- retention latency, reversal of scopolamine-induced memory impairment [8]: unable to reverse
- step-down latency after electroconvulsive shock [9]: without effect
